pKi: −log10 of the molar value.
Key:
DNA-dependent ATPase A = target: T1, DNA-dependent ATPase A (Bos taurus, UniProt Q9TTA5); test: Inhibition of ATP hydrolysis by DNA-dependent ATPase A (overexpressed 82 kDa ADAAD); format: biochemical, bovine; conditions: Ki, Table 4; determined in the presence of effector
T1 sequence (Q9TTA5 222-940): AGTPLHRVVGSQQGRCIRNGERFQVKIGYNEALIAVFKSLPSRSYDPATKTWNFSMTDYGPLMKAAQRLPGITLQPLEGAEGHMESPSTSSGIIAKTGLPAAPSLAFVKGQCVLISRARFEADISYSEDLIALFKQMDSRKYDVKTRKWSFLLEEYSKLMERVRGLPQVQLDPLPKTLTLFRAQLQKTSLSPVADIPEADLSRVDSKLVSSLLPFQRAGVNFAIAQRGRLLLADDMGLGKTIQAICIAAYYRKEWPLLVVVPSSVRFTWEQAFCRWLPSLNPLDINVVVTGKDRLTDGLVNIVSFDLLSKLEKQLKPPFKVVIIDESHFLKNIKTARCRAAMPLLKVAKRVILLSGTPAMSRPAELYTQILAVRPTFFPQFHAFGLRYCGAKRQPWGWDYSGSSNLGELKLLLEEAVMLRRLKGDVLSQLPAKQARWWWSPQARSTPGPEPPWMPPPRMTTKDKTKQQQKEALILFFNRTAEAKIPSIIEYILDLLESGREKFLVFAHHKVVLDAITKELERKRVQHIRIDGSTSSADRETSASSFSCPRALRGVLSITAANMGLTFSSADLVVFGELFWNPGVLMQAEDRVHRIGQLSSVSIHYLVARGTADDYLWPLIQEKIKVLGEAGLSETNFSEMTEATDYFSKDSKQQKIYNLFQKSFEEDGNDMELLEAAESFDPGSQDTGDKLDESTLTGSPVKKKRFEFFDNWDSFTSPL
Experimental: Enzyme (0.2 units (one unit is the amount of enzyme required to hydrolyze 1 μmole of adenosine triphosphate per min)) was mixed with 50 mM Tris-SO4, pH 7.5, 1 mM MgCl2, 5 mM β-mercaptoethanol, 0.5 mg/mL bovine serum albumin, 2 mM phosphoenol pyruvate, 0.03 mg/mL pyruvate kinase, 10 nM of stem-loop DNA, and 2 mM adenosine triphosphate in a total volume of 100 μL. The reaction was typically incubated at 37° C. for 10-60 minutes. At the end of the designated time, 225 μL of 10% sodium dodecyl sulfate and 350 μL of water were added to stop the reaction. Color development requires the addition of two reagents: 180 μL of reagent A (prepared by mixing equal volumes of 60 to 70% perchloric acid and 5% ammonium molybdate in water) and 45 μL of reagent B (0.2 g 1:2:4 aminonaphthol sulfonic acid, 12.0 g sodium metabisulfite, and 2.4 g sodium sulfite dissolved in 100 mL of water) was added. The reaction was incubated at room temperature for 10 minutes and the absorbance was read at 720 nm. The color development was time-dependent and therefore samples must be read at exactly 10 minutes.
Enzyme (0.2 units (one unit is the amount of enzyme required to hydrolyze 1 μmole of adenosine triphosphate per min)) was mixed with 25 mM Tris-acetate pH 7.5, 6 mM Mg(acetate)2, 60 mM KCl, 5 mM β-mercaptoethanol, 3 mM phosphoenol pyruvate, 10 units/mL pyruvate kinase, 10 units/mL lactate dehydrogenase 10 nM DNA, 2 mM adenosine triphosphate, and 0.1 mg/mL NADH in a final volume of 1 mL. The progress of the reaction at 37° C. was monitored at 340 nm using an HP8452 spectrophotometer.
Enzyme (0.2 U) was mixed with 50 mM Tris-SO4, pH 7.5, 1 mM MgCl2, 5 mM β-mercaptoethanol, 0.5 mg/mL bovine serum albumin, 2 mM phosphoenol pyruvate, 0.03 mg/mL pyruvate kinase, 10 nM of stem-loop DNA, and 2 mM adenosine triphosphate in a total volume of 50 μL. Three (3) μCi of [^32P]-γ-adenosine triphosphate was added to the reaction and typical incubation was for 60 minutes 37° C. EDTA (25 mM) was added to stop the reaction. 10 μL of the reaction was spotted on a poly(ethylenimine)-cellulose plate. The plate was developed using 0.9M LiCl and 7M urea as solvent system. The plate was allowed to dry and autoradiographed either using X-OMAT film or a phosphorimager. […]

DNA-independent ATPases = test: Effect on DNA-independent ATPases; format: biochemical
Experimental: (§1) A number of different ATPases, both DNA-dependent and DNA-independent, were analyzed for their behavior with respect to these drugs.

MCF-7 = test: MTS cell survival assay, MCF-7 breast cancer cells; format: cell-based; conditions: MCF-7, FIG. 9
Experimental: (§2) The effect of phosphoaminoglycosides on tumor cell growth was tested in cell culture inhibition studies. 5000 cells were plated in a total volume of 50 μl in a 96 well titer plate. After 24 hours, 50 μl of media and drugs, to the required final concentration, were added. The plates were incubated at 37° C. for 5 days. On the 5th day, the fraction of surviving cells was estimated using a non-radioactive cell proliferation assay (CellTiter 96 AQueous Cell Proliferation Assay from Promega).
(§3) This is a colorimetric assay that determines the number of viable cells. The assay measures the bioreduction of a tetrazolium compound (3-(4,5-dimethylthiazol-2-yl)-5-(3-carboxymethoxyphenyl)-2-(4-sulfophenyl)-2H-tetrazolium, inner salt; MTS), via an electron coupling reagent (phenazine methosulfate; PMS), to formazan, which is soluble in the tissue culture medium. The absorbance of formazan at 490 nm can be measured from the 96 well assay plate without additional processing. The conversion of MTS into the aqueous soluble formazan is accomplished by dehydrogenase enzymes found in metabolically active cells. The quantity of formazan product as measured by the amount of 490 nm absorbance is directly proportional to the number of living cells in culture. […] 20 μl of PMS/MTS solution was added to the cells and the plates were incubated at 37° C. for 2 hours before measuring the absorbance at 490 nm. […]

MDA-MB-231 = test: MTS cell survival assay, MDA-MB-231 breast cancer cells; format: cell-based; conditions: MDA-MB-231, FIG. 9
Experimental: as §2, §3

DNA-dependent ATPases = test: Effect of millimolar neomycin on DNA-dependent ATPases; format: biochemical; conditions: millimolar concentrations
Experimental: as §1
This inhibition is directly attributable to the positive charge that the aminoglycosides carry and thus the sequestering of the DNA (negatively charged) away from the enzyme (the binding of kanamycin directly to DNA has been confirmed—data not shown). In addition, the phosphoneomycin has differing effects on DNA-dependent ATPases from various sources and of various function.

PC3 cell line = test: MTS cell survival assay, PC3 prostate cancer cells; format: cell-based, human
Experimental: as §2
This is a colorimetric assay that determines the number of viable cells. The assay measures the bioreduction of a tetrazolium compound (3-(4,5-dimethylthiazol-2-yl)-5-(3-carboxymethoxyphenyl)-2-(4-sulfophenyl)-2H-tetrazolium, inner salt; MTS), via an electron coupling reagent (phenazine methosulfate; PMS), to formazan, which is soluble in the tissue culture medium. The absorbance of formazan at 490 nm can be measured from the 96 well assay plate without additional processing. The conversion of MTS into the aqueous soluble formazan is accomplished by dehydrogenase enzymes found in metabolically active cells. The quantity of formazan product as measured by the amount of 490 nm absorbance is directly proportional to the number of living cells in culture. 100 μl of the PMS reagent (Promega) was mixed with 2.0 ml of MTS solution (Promega). 20 μl of PMS/MTS solution was added to the cells and the plates were incubated at 37° C. for 2 hours before measuring the absorbance at 490 nm.
In an initial experiment, four drugs (A-kanamycin, B-phosphokanamycin, C-neomycin, and D-phosphoneomycin) were added to prostate cancer cell cultures in a blind fashion. Two prostate cancer cell lines were incubated with each of the drugs and assayed for cell survivability using the MTS assay (Promega).
5000 cells were grown overnight in media and each respective drug (A-kanamycin, B-phosphokanamycin, C-neomycin, and D-phosphoneomycin) was added on the second day. […] Each point is the average of readings from three wells.

Compound: NCC[C@H](O)C(=O)N[C@@H]1C[C@H](N)[C@@H](O[C@H]2O[C@H](CN)[C@@H](O)[C@H](OP(=O)(O)O)[C@H]2O)[C@H](O)[C@H]1O[C@H]1O[C@H](CO)[C@@H](O)[C@H](N)[C@H]1O [3′ phosphorylated amikacin]
- pKi (DNA-dependent ATPase A): 6.78

Compound: CN[C@@H]1[C@@H](O)[C@@H](O[C@@H]2[C@@H](O)[C@H](O[C@H]3O[C@H](CO)[C@@H](O)[C@H](OP(=O)(O)O)[C@H]3N)[C@@H](N)C[C@H]2N)OC[C@H]1O [3′ phosphorylated gentamicin]
- pKi (DNA-dependent ATPase A): 6.66

Compound: CN[C@@H]1[C@@H](O)[C@@H](O[C@@H]2[C@@H](O)[C@H](O[C@H]3O[C@H]([C@@H](C)O)[C@@H](O)[C@H](OP(=O)(O)O)[C@H]3N)[C@@H](N)C[C@H]2N)OC[C@]1(C)O [phosphogeneticin, 3′-phosphogeneticin]
- pKi (DNA-dependent ATPase A): 6.72

Compound: Neomycin B & C (^˜15% Neomycin C) [reference compound]
- effect on DNA-independent ATPases (in words) (DNA-independent ATPases): neither affected
- effect on cell growth (in words) (MCF-7): no effect
- effect on cell growth (in words) (MDA-MB-231): no effect
- inhibition of all DNA-dependent ATPases (in words) (DNA-dependent ATPases): some inhibition
- effect on PC3 cells (in words) (PC3 cell line; FIG. 8, day five): neither kanamycin nor neomycin had any effect
- effect on PC3 cell survival (in words) (PC3 cell line; concentrations in excess of 1 mM): increased cell survival
